SMILES strings stand for the structures.

Assay [1] deals with Plasmodium falciparum. Description: Antiplasmodial activity against asexual blood-stage Plasmodium falciparum Tm90-C2B using 2% haematocrit and 0.2% parasitemia assessed as reduction in fluorescence measured after 72 hrs by Malaria SYBR Green I-based Fluorescence (MSF) assay. The assay is classed as functional, organism-based.
Assay [2] relates to Plasmodium falciparum. Description: microbe, parasite or virus in culture. Conditions: D6, 72 h.
Description: Antiplasmodial activity against asexual blood-stage Plasmodium falciparum D6 using 2% haematocrit and 0.2% parasitemia assessed as reduction in fluorescence measured after 72 hrs by Malaria SYBR Green I-based Fluorescence (MSF) assay
In assay [3] the test system is Plasmodium falciparum. Briefly: microbe, parasite or virus in culture. Conditions: Dd2, 72 h.
Description: Antiplasmodial activity against asexual blood-stage Plasmodium falciparum Dd2 using 2% haematocrit and 0.2% parasitemia assessed as reduction in fluorescence measured after 72 hrs by Malaria SYBR Green I-based Fluorescence (MSF) assay

Turning to `CCc1c(C(=O)NC2CCCCC2)[nH]c(-c2ccc(C)[nH]2)c1CC`, the IC50 in assay [1], in assay [2] and in assay [3] was above 2.5 µM in each case.

As for `COc1ccc(C2=C(c3ccc(OC)cc3)/C(=C/NC3CCCCC3)N=C2c2ccc[nH]2)cc1`, the IC50 in assay [1] turned out to be 0.187 µM; in assay [3], 0.343 µM.

With `C(/NC1CCCCC1)=C1/N=C(c2ccc[nH]2)C(c2ccccc2)=C1c1ccccc1`, the figures for the IC50 in assay [1], in assay [2] and in assay [3] were 1.7 µM, 1.52 µM and 1.28 µM, respectively.

As to `CCc1ccc(-c2[nH]c(C(=O)NC3CCCCC3)c(CC)c2CC)[nH]1`, the IC50 in assay [1], in assay [2] and in assay [3] was above 2.5 µM in each case.

On to `CCC1=C(CC)/C(=C/NC2CCCCC2)N=C1c1ccccc1OCCN(C)C`, for which the values for the concentration for half-maximal inhibition (IC50) in assay [1], in assay [2] and in assay [3] were above 2.5 µM, above 2.5 µM and 1.38 µM, respectively.

Turning to `CCC1=C(CC)/C(=C/NC23C[C@H]4C[C@@H](C2)C[C@@H](C3)C4)N=C1c1ccccc1OCCN(C)C`, the IC50 was 1.73 µM in assay [1], above 2.5 µM in assay [2] and 2.44 µM in assay [3].

For `C(/NC12C[C@H]3C[C@@H](C1)C[C@@H](C2)C3)=C1/N=C(c2ccc[nH]2)C(c2ccccc2)=C1c1ccccc1`, the IC50 in assay [1] came to 0.351 µM; in assay [2] it was 0.412 µM; in assay [3] it was 0.359 µM.

On to `COc1ccc(OC2=C(Oc3ccc(OC)cc3)/C(=C/NC34C[C@H]5C[C@@H](C3)C[C@@H](C4)C5)N=C2c2ccc[nH]2)cc1`, for which the IC50 in assay [1] is 0.184 µM; in assay [2], 0.228 µM; in assay [3] it was 0.113 µM.

In the case of `CCc1c(C(=O)NC23C[C@H]4C[C@@H](C2)C[C@@H](C3)C4)[nH]c(-c2ccc[nH]2)c1CC`, the 50% inhibitory concentration (IC50) in assay [1], in assay [2] and in assay [3] was above 2.5 µM each time.

Regarding `CCC1=C(CC)/C(=C/NC2CCCCC2)N=C1c1ccccc1OCCN(CC)CC`, the IC50 was 1.06 µM in assay [1], above 2.5 µM in assay [2] and 0.757 µM in assay [3].

Regarding `CCC1=C(CC)/C(=C/NC2CCCCC2)N=C1c1ccccc1OC`, the concentration for half-maximal inhibition (IC50) in assay [1], in assay [2] and in assay [3] was above 2.5 µM throughout.

In the case of `COc1ccc(OC2=C(Oc3ccc(OC)cc3)/C(=C/NC3CCCCC3)N=C2c2ccc[nH]2)cc1`, the figures for the half-maximal inhibitory concentration (IC50) in assay [1], in assay [2] and in assay [3] were 1.65 µM, 1.22 µM and 1.47 µM, respectively.

`C(/NC1CCCCC1)=C1/N=C(c2ccc[nH]2)C(Oc2ccccc2)=C1Oc1ccccc1`: the half-inhibitory concentration (IC50) in assay [1], in assay [2] and in assay [3] was above 2.5 µM in each case.

As to `CCC1=C(CC)/C(=C/NC2CCCCCCC2)N=C1c1ccn[nH]1`, the IC50 in assay [1], in assay [2] and in assay [3] was above 2.5 µM in each case.

As for `CCC1=C(CC)/C(=C/NC2CCCCCC2)N=C1c1ccc(C#N)[nH]1`, the IC50 in assay [1], in assay [2] and in assay [3] was above 2.5 µM in each case.

Take `CCC1=C(CC)/C(=C/NC23C[C@H]4C[C@@H](C2)C[C@@H](C3)C4)N=C1c1ccn[nH]1`: the IC50 in assay [1], in assay [2] and in assay [3] was above 2.5 µM each time.

Take `CCC1=C(CC)/C(=C/NC2CCCCC2)N=C1c1cc2cc(OC)ccc2[nH]1`: the IC50 in assay [1] was 2.29 µM; in assay [2], 1.08 µM; in assay [3], above 2.5 µM.

With `CCC1=C(CC)/C(=C/NC23C[C@H]4C[C@@H](C2)C[C@@H](C3)C4)N=C1c1ccc(C#N)[nH]1`, the IC50 in assay [1] is 0.818 µM; in assay [2], 0.397 µM; in assay [3], above 2.5 µM.

For `C(/NC1CCCCCC1)=C1/N=C(c2ccc[nH]2)C(Oc2ccccc2)=C1Oc1ccccc1`, the IC50 in assay [1], in assay [2] and in assay [3] was above 2.5 µM in each case.

`CCC1=C(CC)/C(=C/NC2CCCCC2)N=C1c1cc2ccccc2[nH]1`: the concentration for half-maximal inhibition (IC50) in assay [1], in assay [2] and in assay [3] was above 2.5 µM throughout.

On to `CCc1c(CNC23CC4CC(CC(C4)C2)C3)[nH]c(-c2ccc[nH]2)c1CC`, for which the concentration for half-maximal inhibition (IC50) in assay [1] is 0.912 µM; in assay [3], 0.753 µM.

With `CCC1=C(CC)/C(=C/NC23C[C@H]4C[C@@H](C2)C[C@@H](C3)C4)N=C1c1ccccc1F`, the IC50 in assay [1], in assay [2] and in assay [3] was above 2.5 µM each time.

`CCC1=C(CC)/C(=C/NC2CCCCCCC2)N=C1c1ccc(C#N)[nH]1`: the IC50 in assay [1], in assay [2] and in assay [3] was above 2.5 µM in each case.

On to `COc1ccc(C2=C(c3ccc(OC)cc3)/C(=C/NC3CCCCCC3)N=C2c2ccc[nH]2)cc1`, for which the IC50 in assay [1] was 0.131 µM; in assay [3] it was 0.33 µM.

With `CCC1=C(CC)/C(=C/NC2CCCCC2)N=C1c1ccc(C#N)[nH]1`, the IC50 in assay [1] was above 2.5 µM; in assay [2], 1.6 µM; in assay [3] it was above 2.5 µM.

Consider `CCc1ccc(-c2[nH]c(C(=O)NC34C[C@H]5C[C@@H](C3)C[C@@H](C4)C5)c(CC)c2CC)[nH]1`, for which the IC50 in assay [1], in assay [2] and in assay [3] was above 2.5 µM in each case.

For the compound `C(/NC1CCCCCC1)=C1/N=C(c2ccc[nH]2)C(c2ccccc2)=C1c1ccccc1`, the concentration for half-maximal inhibition (IC50) in assay [1] is 2.11 µM; in assay [3], 1 µM.

On to `C(/NC12C[C@H]3C[C@@H](C1)C[C@@H](C2)C3)=C1/N=C(c2ccc[nH]2)C(Oc2ccccc2)=C1Oc1ccccc1`, for which the 50% inhibitory concentration (IC50) in assay [1] came to 0.456 µM; in assay [2], 0.617 µM; in assay [3], 0.787 µM.

Consider `CCC1=C(CC)/C(=C/NC23C[C@H]4C[C@@H](C2)C[C@@H](C3)C4)N=C1c1ccccc1OCCN(CC)CC`, for which the IC50 in assay [1] came out at 1.4 µM; in assay [2], 2.07 µM; in assay [3] it was 0.774 µM.

Consider `CCC1=C(CC)/C(=C/NC2CCCCC2)N=C1c1ccn[nH]1`, for which the IC50 in assay [1], in assay [2] and in assay [3] was above 2.5 µM throughout.

As for `CCC1=C(CC)/C(=C/NC2CCCCC2)N=C1c1ccccc1F`, the IC50 in assay [1], in assay [2] and in assay [3] was above 2.5 µM throughout.

With `CCC1=C(CC)/C(=C/NC2CCCCCC2)N=C1c1ccn[nH]1`, the IC50 in assay [1], in assay [2] and in assay [3] was above 2.5 µM each time.

As for `COc1ccc(OC2=C(Oc3ccc(OC)cc3)/C(=C/NC3CCCCCC3)N=C2c2ccc[nH]2)cc1`, the IC50 in assay [1] is 2.17 µM; in assay [2] it was 1.49 µM; in assay [3], 1.74 µM.

Take `CCc1c(C(=O)NC2CCCCC2)[nH]c(-c2ccc[nH]2)c1CC`: the concentration for half-maximal inhibition (IC50) in assay [1], in assay [2] and in assay [3] was above 2.5 µM in each case.

With `CCC1=C(CC)/C(=C/NC23C[C@H]4C[C@@H](C2)C[C@@H](C3)C4)N=C1c1ccccc1OC`, the IC50 in assay [1], in assay [2] and in assay [3] was above 2.5 µM in each case.

Regarding `CCC1=C(CC)/C(=C/NC2CCCCC2)N=C1c1ccccc1O`, the IC50 in assay [1], in assay [2] and in assay [3] was above 2.5 µM in each case.

The IC50 is the point on the concentration scale where inhibition reaches its midpoint.

These data come from ChEMBL document CHEMBL6178021, “Optimization of Tambjamines Active against Multiple Stages of Malaria Parasites” (J Med Chem, 2025).
